pEC50: −log10 of the molar value. In brackets after ≈: the same amount, converted by molar mass. Activity calls are given as the source filed them. The calls are words filed in the database; no cut-off is given here.

The nature of data set [1]: Cytotoxicity against human T24 cells by XTT assay. The class given is toxicity, cell-based, T-24. In general terms: Formazan colour is commonly taken as a measure of viable cells.
In data set [2] the target is Transient receptor potential cation channel subfamily A member 1 (Rattus norvegicus, UniProt Q6RI86). Put plainly: Agonist activity at rat TRPA1 expressed in HEK293 cells. The class given is cell-based.
Chain of Transient receptor potential cation channel subfamily A member 1 (Q6RI86 whole entry): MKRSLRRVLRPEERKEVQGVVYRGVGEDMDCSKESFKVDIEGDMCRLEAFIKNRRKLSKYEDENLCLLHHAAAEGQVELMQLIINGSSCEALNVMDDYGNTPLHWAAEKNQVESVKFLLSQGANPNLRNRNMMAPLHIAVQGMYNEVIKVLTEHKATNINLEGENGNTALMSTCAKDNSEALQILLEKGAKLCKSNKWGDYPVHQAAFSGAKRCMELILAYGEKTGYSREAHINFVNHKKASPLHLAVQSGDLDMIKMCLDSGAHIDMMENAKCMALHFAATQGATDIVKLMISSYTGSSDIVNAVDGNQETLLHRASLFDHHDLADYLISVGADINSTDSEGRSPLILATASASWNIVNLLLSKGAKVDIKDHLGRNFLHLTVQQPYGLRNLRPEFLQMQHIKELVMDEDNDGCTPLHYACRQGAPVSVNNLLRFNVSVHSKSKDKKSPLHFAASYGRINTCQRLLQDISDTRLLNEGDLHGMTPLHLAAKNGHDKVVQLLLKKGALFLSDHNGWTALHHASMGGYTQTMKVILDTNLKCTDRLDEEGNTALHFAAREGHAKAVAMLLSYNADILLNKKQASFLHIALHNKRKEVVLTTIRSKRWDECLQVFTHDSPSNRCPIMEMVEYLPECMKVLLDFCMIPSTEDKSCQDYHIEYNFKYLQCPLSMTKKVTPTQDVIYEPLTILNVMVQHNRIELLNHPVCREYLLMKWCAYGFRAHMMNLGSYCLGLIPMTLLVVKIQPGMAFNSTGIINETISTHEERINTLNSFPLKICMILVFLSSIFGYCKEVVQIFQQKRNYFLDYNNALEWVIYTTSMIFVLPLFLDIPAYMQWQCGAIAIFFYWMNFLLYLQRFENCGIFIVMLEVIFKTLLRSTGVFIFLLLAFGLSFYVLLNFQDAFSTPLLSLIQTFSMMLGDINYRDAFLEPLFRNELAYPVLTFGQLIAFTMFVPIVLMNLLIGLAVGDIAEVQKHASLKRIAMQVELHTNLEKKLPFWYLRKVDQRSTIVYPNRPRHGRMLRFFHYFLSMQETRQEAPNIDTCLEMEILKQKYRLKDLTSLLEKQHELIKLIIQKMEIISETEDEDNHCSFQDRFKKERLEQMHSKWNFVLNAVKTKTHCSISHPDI
Data set [3] addresses Transient receptor potential cation channel subfamily A member 1 (Homo sapiens) (UniProt O75762). Put plainly: Agonist activity at human TRPA1 expressed in HEK293E cells assessed as calcium mobilization measured every 2 sec for 150 sec by microplate reader analysis. The data set is classed as cell-based. To be noted: filed as agonist. (In general: A change in cytosolic calcium serves as a functional read-out for many receptors and channels.)

The target of data set [4] is Transient receptor potential cation channel subfamily A member 1 (Rattus norvegicus) (UniProt Q6RI86). Put plainly: Agonist activity at rat TRPA1 expressed in HEK293E cells assessed as calcium mobilization measured every 2 sec for 150 sec by microplate reader analysis. The data set is classed as cell-based. Conditions: filed as agonist.
Chain of Transient receptor potential cation channel subfamily A member 1 (Rattus norvegicus) (Q6RI86 whole entry): as above

Chain of Transient receptor potential cation channel subfamily A member 1 (Homo sapiens) (O75762 whole entry): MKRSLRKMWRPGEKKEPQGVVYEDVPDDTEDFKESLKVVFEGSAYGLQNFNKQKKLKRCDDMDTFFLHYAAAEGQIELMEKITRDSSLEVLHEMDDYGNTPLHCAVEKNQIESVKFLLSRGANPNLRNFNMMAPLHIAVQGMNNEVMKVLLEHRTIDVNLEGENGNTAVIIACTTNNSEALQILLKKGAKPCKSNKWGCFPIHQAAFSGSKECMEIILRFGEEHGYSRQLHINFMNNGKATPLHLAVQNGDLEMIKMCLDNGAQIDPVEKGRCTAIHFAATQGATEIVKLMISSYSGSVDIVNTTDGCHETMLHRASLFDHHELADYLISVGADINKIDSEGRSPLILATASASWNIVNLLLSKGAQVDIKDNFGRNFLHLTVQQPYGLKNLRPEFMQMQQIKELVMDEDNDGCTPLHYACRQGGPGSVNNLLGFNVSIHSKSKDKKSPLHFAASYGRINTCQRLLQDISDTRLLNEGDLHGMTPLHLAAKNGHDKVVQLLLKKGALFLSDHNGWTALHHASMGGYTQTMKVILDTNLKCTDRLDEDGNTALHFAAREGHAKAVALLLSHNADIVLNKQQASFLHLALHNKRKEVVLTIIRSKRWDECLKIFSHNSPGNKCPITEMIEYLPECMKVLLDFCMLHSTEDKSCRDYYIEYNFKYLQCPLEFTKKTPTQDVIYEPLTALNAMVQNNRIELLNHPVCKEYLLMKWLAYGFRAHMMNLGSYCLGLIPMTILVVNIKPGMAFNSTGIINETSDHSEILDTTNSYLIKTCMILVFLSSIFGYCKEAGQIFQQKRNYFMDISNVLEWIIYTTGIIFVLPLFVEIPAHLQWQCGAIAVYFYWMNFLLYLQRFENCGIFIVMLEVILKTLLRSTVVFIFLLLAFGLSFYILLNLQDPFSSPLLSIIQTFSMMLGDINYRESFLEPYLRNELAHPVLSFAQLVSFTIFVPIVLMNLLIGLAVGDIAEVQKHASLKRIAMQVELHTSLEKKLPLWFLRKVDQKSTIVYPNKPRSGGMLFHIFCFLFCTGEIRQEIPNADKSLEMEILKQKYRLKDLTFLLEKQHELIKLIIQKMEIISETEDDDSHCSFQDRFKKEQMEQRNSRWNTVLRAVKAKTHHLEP

In data set [1], `CCCCCc1cc(O)c2c(c1)OC(C)(CCC=C(C)C)C=C2` (racemic) [CANNABICHROMENE] gave an IC50 of 13 µg/mL (≈ 41.5 µM). The compound further gave a pEC50 in data set [2] of 7.05. As for `CCCCCc1cc(O)c2c(c1)O[C@@](C)(CCC=C(C)C)C=C2`, the outcome in data set [3] and in data set [4] was Active. Take `CCCCCc1cc(O)c2c(c1)O[C@](C)(CCC=C(C)C)C=C2`: the result in data set [3] and in data set [4] was Active. `CCCCCc1cc(O)c2c(c1)OC(C)(C)[C@@H]1CCC(C)=C[C@@H]21` [DRONABINOL] showed an IC50 in data set [1] of 13 µg/mL (≈ 41.5 µM).

For orientation: IC50 means the point on the concentration scale where inhibition reaches its midpoint. Usually pEC50 stands for the EC50 on a negative log10 scale, so that one unit is a factor of ten. A higher pEC50 goes with a small EC50.

(Values after ChEMBL document CHEMBL5357003, “A Simple Chiral 1H NMR Method for the Discrimination of (R)- and (S)-Cannabichromene in Complex Natural Mixtures and Their Effects on TRPA1 Activity” (J Nat Prod, 2024).)
